The target of test [1] is T1, PRMT5-MEP50 enzyme complex (Homo sapiens, UniProt O14744).
T1 construct: 1.25 nM of Full-length (FL)-PRMT5-MEP50 enzyme complex; made in house; host or cells: baculovirus-transfected Sf21 cells
The experiment in a line: PRMT5-MEP50 Enzyme Methylation Assay. The test is classed as biochemical. The following applies: recombinant FL-PRMT5-MEP50, biotinylated H4R3(Me1) peptide, 15 μM SAM. As to the method:
PRMT5-MEP50 Enzyme Methylation Assay
PRMT5-MEP50 biochemical assay is a direct measurement of the methylation activity of the enzyme complex on a short peptide substrate derived from the N-terminus of H4 histone. Methylation experiment was performed with recombinant PRMT5-MEP50 protein complex. The assessment of inhibitory effect of small molecules was measured by the effectiveness of the compounds to inhibit this reaction (EC50).
In this assay, the potency (EC50) of each compound was determined from a twenty-point (1:2 serial dilution; top compound concentration of 100000 nM) titration curve using the following outlined procedure. To each well of a white ProxiPlus 384 well-plate, 100 nL of compound (1% DMSO in final assay volume of 10 μL) was dispensed, followed by the addition of 8 μL of 1× assay buffer (50 mM Bicine pH 8.0, 1 mM DTT, 0.004% Tween20, 0.01% BSA) containing 1.25 nM of Full-length (FL)-PRMT5-MEP50 enzyme complex (recombinant proteins from baculovirus-transfected Sf21 cells: FL-PRMT5; MW=[…] and FL-MEP50; MW=38614) and 1 μL of 150 μM S-(5′-Adenosyl)-L-Methionine Chloride (SAM). Plates were sealed and placed in a 37° C. humidified chamber for a 60 minutes pre-incubation with compound. Subsequently, each reaction was initiated by the addition of 1 μL 1× assay buffer containing 750 nM biotinylated H4R3(Me1) peptide. The final reaction in each well of 10 μL consists of 1.0 nM PRMT5-MEP50, 75 nM biotinylated-peptide, and 15 μM SAM. Methylation reactions were allowed to proceed for 150 minutes in a sealed plate at 37° C. Reactions were immediately quenched by the addition of 1 μL of 5% formic acid. Plates were then frozen and shipped to SAMDI™ Tech Inc. to determine the percent conversion from H4R3(Me1) to H4R3(Me2). Dose-response curves were generated by plotting percent effect (% product conversion; Y-axis) vs. Log 10 compound concentrations (X-axis). EC50 values were determined by non-linear regression according to models for sigmoidal (4 parameters) dose-response curves.

The target of test [2] is T2, PRMT5 (symmetric dimethylation of arginine (SDMA) of PRMT5 substrates) in MCF-7 cells (Homo sapiens, UniProt O14744).
T2 construct: endogenous in cells; host or cells: MCF-7 cells
The experiment in a line: PRMT5 Cell Target Engagement (TE) Assay. The test is classed as cell-based. The settings on record: 3 days treatment, nuclear SDMA by high content imaging. From the text: PRMT5 Cell Target Engagement (TE) Assay
The PRMT5 TE assay is a biomarker assay for identifying compounds that inhibit symmetric dimethylation of arginine (SDMA) of PRMT5 substrates. The following substrates have been reported for PRMT5: histone H2A and H4 R3, Histone H3 R2, Histone H3 R8, spliceosome Sm proteins, ribosomal protein RPS10, p53, FEN1, nucleoplasmin, nucleolin, EGFR and EBNA. The assay focuses on detecting symmetrically dimethylated nuclear proteins using high content imaging technology. Detection of the expression of symmetrically dimethylated nuclear proteins is through a mixture of primary rabbit monoclonal antibodies to SDMA (CST 13222), which in turn recognized by an Alexafluor 488 dye-conjugated anti-rabbit IgG secondary antibody. The IN Cell Analyzer 2200 or Opera-Phenix measures nuclear Alexafluor 488 fluorescent dye intensity that is directly related to the level of expression of symmetrically dimethylated nuclear proteins at the single cell level. Nuclear AF488 dye intensities are compared to the mean value for DMSO treated cells (MIN) to report percent of inhibition for each compound-treated well.
In this assay, the cell potency (EC50) of each compound was determined from a ten point (1:3 serial dilution; top compound concentration of 10000 nM) titration curve using the following outlined procedure. Each well of a BD falcon collagen coated black/clear bottom 384-well plate was seeded with 4000 MCF-7 cells in 30 μl media and allowed to attach for 5 h. Media is ATCC-formulated Eagle's Minimum Essential Medium, Catalog No. 30-2003. To make the complete growth medium, the following components were added to the base medium: 0.01 mg/mL human recombinant insulin; fetal bovine serum to a final concentration of 10%. Additional 30 μl of media containing 2× compounds were added to each well. Cells were treated for 3 days in 37° C. CO2 incubator. On day 3, cells were fixed with Cytofix, permeablized with 0.4% Triton-X-100/Cytofix, and washed with D-PBS without Ca/Mg. Cells were blocked with Licor Odessey blocking reagent for 1 h at room temperature, followed by incubation with anti-SDMA (1:1000) antibody at 4° C. overnight. 1° antibody was removed, followed by three washings with DPBS without Ca/Mg and 0.05% Tween20. Hoechst (5 μg/mL), Cell Mask deep stain (1:2000) and Alexa488-conjugated goat anti-rabbit IgG (2 μg/mL) was added for 1 h at room temperature. A final washing step (three washes) was performed before sealing plate for imaging on In Cell Analyzer 2200 or Opera-Phenix. Images from analyzer were uploaded to Columbus (at WP or BOS) for image analysis. IC50 values were determined by 4 parameters robust fit of percent fluorescence units vs. (Log10) compound concentrations.

[3] abbreviates: only EC50 (4 parameters single site sigmoidal model) or first EC50 of 7 parameters biphasic model, read-out: Enzyme Methylation Assay (EC50).
[4] abbreviates: second EC50 of 7 parameters biphasic model, read-out: Enzyme Methylation Assay (EC50, nM), second EC50.

Where two headings read alike, the source gives them in different places.

T2 sequence (O14744 whole entry): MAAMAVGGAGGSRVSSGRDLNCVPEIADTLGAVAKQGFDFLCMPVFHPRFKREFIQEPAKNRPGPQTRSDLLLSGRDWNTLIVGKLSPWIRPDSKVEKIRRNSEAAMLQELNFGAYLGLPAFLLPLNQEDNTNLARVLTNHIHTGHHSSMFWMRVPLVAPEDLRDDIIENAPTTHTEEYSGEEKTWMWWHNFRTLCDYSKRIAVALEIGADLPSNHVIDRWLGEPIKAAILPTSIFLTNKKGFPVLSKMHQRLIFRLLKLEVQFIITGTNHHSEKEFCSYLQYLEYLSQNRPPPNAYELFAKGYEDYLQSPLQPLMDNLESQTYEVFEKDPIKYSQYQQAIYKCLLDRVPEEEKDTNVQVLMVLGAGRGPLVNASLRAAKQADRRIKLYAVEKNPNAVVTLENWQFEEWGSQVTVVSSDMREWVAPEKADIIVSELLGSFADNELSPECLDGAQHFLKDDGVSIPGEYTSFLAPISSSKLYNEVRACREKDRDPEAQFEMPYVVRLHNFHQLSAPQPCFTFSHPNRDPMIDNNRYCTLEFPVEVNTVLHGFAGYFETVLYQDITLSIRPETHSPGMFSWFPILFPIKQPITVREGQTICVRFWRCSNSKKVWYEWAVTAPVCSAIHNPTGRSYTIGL
T2 sequence (Q9BQA1 whole entry partner): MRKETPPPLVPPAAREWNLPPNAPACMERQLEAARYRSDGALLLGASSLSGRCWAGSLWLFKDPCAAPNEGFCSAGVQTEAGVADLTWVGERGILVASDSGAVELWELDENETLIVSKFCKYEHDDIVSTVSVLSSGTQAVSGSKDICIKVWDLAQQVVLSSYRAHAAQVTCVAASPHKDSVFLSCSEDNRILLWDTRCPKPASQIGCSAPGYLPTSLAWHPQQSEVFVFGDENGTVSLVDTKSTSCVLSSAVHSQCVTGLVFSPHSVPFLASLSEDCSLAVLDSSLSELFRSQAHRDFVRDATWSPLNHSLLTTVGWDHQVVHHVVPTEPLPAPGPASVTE
T1 sequence (O14744 whole entry): as the sequence (O14744 whole entry) above
T1 sequence (Q9BQA1 whole entry partner): as the sequence (Q9BQA1 whole entry partner) above

A word on the EC50: it is the midpoint of the concentration-response curve. `CO[C@@H](C)c1cc(Br)cn2cc(C(=O)N3CC[C@]4(Cc5ccccc5CN4)[C@H](O)C3)nc12` (single isomer, unassigned) [Example 2]: the EC50 in test [1] (setting [3]) is 0.369 nM; in test [1] (setting [4]) it was 114 nM; in test [2], 2.11 nM.
Regarding `CO[C@H](C)c1cc(Br)cn2cc(C(=O)N3CC[C@]4(Cc5ccccc5CN4)[C@H](O)C3)nc12` (single isomer, unassigned) [Example 3], the half-maximal effective concentration (EC50) in test [1] (setting [3]) is 0.581 nM; in test [2] it was 1.57 nM.
As to `Cc1nc2nc(C(=O)N3CC[C@]4(Cc5ccccc5CN4)[C@H](O)C3)cn2cc1Br` [Example 4, (6-bromo-7-methylimidazo[1,2-a]pyrimidin-2-yl)[(3R,3′R)-3′-hydroxy-1,4-dihydro-1′H,2H-spiro[isoquinoline-3,4′-piperidin]-1′-yl]methanone], the EC50 in test [1] (setting [3]) was determined as 0.652 nM; in test [1] (setting [4]) it was 280 nM; in test [2] it was 14 nM.
Turning to `COCc1cc(C(F)(F)F)cn2cc(C(=O)N3CC[C@]4(Cc5ccccc5CN4)[C@H](O)C3)nc12` [Example 1, ((3R,3′R)-3′-hydroxy-1,4-dihydro-1′H,2H-spiro[isoquinoline-3,4′-piperidin]-1′-yl)[8-(methoxymethyl)-6-(trifluoromethyl)imidazo[1,2-a]pyridin-2-yl]methanone], the figures for the EC50 in test [1] (setting [3]), in test [1] (setting [4]) and in test [2] were 0.525 nM, 224 nM and 6.23 nM, respectively.
`O=C(c1cn2cc(C3CC3)cnc2n1)N1CC[C@]2(Cc3ccccc3CN2)[C@H](O)C1` [Example 5, (6-cyclopropylimidazo[1,2-a]pyrimidin-2-yl)[(3R,3′R)-3′-hydroxy-1,4-dihydro-1′H,2H-spiro[isoquinoline-3,4′-piperidin]-1′-yl]methanone]: the figures for the EC50 in test [1] (setting [3]), in test [1] (setting [4]) and in test [2] were 0.216 nM, 72.4 nM and 4.42 nM, respectively.

Values taken from patent publication US12583871B2, “PRMT5 inhibitors” (MERCK SHARP & DOHME LLC, priority 2019, dated 2026).
